According to ChEMBL document CHEMBL4346735, “Discovery and pharmacological evaluation of indole derivatives as potent and selective RORγt inverse agonist for multiple autoimmune conditions” (Bioorg Med Chem Lett, 2019):

Key:
[1] = target: T1, Nuclear receptor ROR-gamma (Mus musculus, UniProt P51450); assay: Inverse agonist activity at RORgammat in mouse splenocytes derived naive T cells assessed as suppression of T cell differentiation to Th17 cells by measuring IL-17 secretion in presence of […]/anti-IFNgamma/TGFbeta/IL-6 for 6 days by ELISA; type: cell-based
T1 sequence (P51450 whole entry): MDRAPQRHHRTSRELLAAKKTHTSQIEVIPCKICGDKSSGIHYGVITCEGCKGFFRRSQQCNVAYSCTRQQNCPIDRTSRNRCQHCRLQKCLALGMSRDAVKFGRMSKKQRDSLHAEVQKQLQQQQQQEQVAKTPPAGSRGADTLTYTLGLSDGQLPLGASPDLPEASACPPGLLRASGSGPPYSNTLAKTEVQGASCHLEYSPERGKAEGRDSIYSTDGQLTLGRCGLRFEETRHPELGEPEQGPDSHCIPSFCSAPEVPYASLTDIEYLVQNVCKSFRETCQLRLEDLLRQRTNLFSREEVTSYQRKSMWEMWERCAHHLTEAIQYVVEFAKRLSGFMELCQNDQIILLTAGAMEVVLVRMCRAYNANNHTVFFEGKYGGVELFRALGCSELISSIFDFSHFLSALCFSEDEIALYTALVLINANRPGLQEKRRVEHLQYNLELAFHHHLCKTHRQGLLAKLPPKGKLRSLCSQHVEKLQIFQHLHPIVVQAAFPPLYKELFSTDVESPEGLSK

[2] = Metabolic stability in dog hepatocytes assessed as parent compound remaining after 60 mins; type: ADME, cell-based, Canis lupus familiaris, Hepatocyte; conditions: read-out: Stability
[3] = Metabolic stability in simulated intestinal fluid assessed as compound remaining after 60 mins; type: ADME; conditions: read-out: Stability
[4] = Metabolic stability in simulated intestinal fluid assessed as compound remaining after 3 hrs; type: ADME; conditions: read-out: Stability
[5] = Plasma protein binding in human; type: ADME; conditions: read-out: PPB
[6] = Mutagenicity in Salmonella typhimurium by mini Ames test; type: toxicity; conditions: salmonella enterica subsp. enterica serovar typhimurium
[7] = Cmax in mouse at 10 mg/kg, po; type: ADME, organism-based; set-up: dose 10 mg/kg, route oral; conditions: in vivo
[8] = Clearance in mouse at 3 mg/kg, iv; type: ADME, organism-based; conditions: in vivo
Mus musculus [9] = assay: Inhibition of anti-CD3-induced IL-17A level in Balb/c mouse plasma at 10 mg/kg, po treated prior to stimulation with anti-CD3 for 3 hrs relative to control; type: functional
Mus musculus [10] = assay: Immunosuppressive activity in MOG (35 to 55 residues)/pertussis toxin-induced experimental allergic encephalomyelitis C57BL/6J mouse model assessed as reduction in disease severity score at 3 mg/kg, po bid measured at day 23 relative to dexamethasone; type: functional; conditions: 552 h
Mus musculus [11] = assay: Immunosuppressive activity in MOG (35 to 55 residues)/pertussis toxin-induced experimental allergic encephalomyelitis C57BL/6J mouse model assessed as reduction in disease severity score at 10 mg/kg, po bid measured at day 23 relative to dexamethasone; type: functional; conditions: 552 h
Mus musculus [12] = assay: (§1) Immunosuppressive activity in MOG (35 to 55 residues)/pertussis toxin-induced experimental allergic encephalomyelitis C57BL/6J mouse model assessed as reduction in IL-17A gene expression in spinal cord at 30 mg/kg, po bid measured at day 19 post MOG immunization/pertusis immunization relative to control; type: functional; conditions: 456 h
Mus musculus [13] = assay: as §1, with “IL-22” for “IL-17A”; type: functional; conditions: 456 h
Mus musculus [14] = assay: as §1, with “23” for “19”; type: functional; conditions: 552 h
Mus musculus [15] = assay: as §1, with “IL-22” for “IL-17A”, “23” for “19”; type: functional; conditions: 552 h
Mus musculus [16] = assay: as §1, with “GM-CSF” for “IL-17A”, “23” for “19”; type: functional; conditions: 552 h
Mus musculus [17] = assay: as §1, with “CCR6” for “IL-17A”, “23” for “19”; type: functional; conditions: 552 h

O=C(O)c1ccc(-n2cc(C(=O)c3c(Cl)cccc3Cl)c3cccc(F)c32)cc1
IC50 [1]: 26 nM
remaining at 1 h [2]: 51%
remaining at 1 h [3]: 100%
remaining at 3 h [4]: 100%
fraction unbound [5]: < 0.03
Activity [6]: Non-Toxic
Cmax [7]: 6.2 µM
clearance [8]: 23.4 mL/min/kg
inhibition in vivo at 10 mg/kg (Mus musculus [9]): 17%
inhibition in vivo at 3 mg/kg (Mus musculus [10]): 25%
inhibition in vivo at 10 mg/kg (Mus musculus [11]): 31%
inhibition in vivo at 30 mg/kg (Mus musculus [12]): 30%
inhibition in vivo at 30 mg/kg (Mus musculus [13]): 36%
inhibition in vivo at 30 mg/kg (Mus musculus [14]): 43%
inhibition in vivo at 30 mg/kg (Mus musculus [15]): 24%
inhibition in vivo at 30 mg/kg (Mus musculus [16]): 70%
inhibition in vivo at 30 mg/kg (Mus musculus [17]): 36%
